US20050239656A1, “Pyridine compounds or salts thereof and herbicides containing the same” (priority 2002, published 2005)

test system: barnyardgrass; assay: Test Example 1: foliage treatment, upland pot test; format: in vivo, Echinochloa crus-galli L.; conditions: active ingredient 500 g/ha, observed 18th to 23rd day, 0 = non-treated, 100 = complete kill
Summary of the method: (§1)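 Visual growth-control score, 0% (like untreated) to 100% (complete kill), taken on days 18 to 23 after foliar spraying. Leaf stage at treatment: barnyardgrass 1.3–2.8, rice 1.2–2.6, wheat 1.3–2.4, soybean 0.1–0.4. Spray: wettable powder or EC in 500 L/ha water, 0.1% v/v spreader added.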

First: CC(C)C(c1cnccc1Cl)N(C)C(=O)Cc1cccc(F)c1 (centres unmarked) [I-65]
Second: CC(C)C(c1cnccc1Cl)N(C)C(=O)Cc1c(F)cccc1F (centres unmarked) [I-70]
The “Growth controlling degree (%) Barnyardgrass” value of the first is lower: 10% for the first, 40% for the second.

test system: crabgrass; assay: Test Example 1: foliage treatment, upland pot test; format: in vivo, Digitaria sanguinalis L.; conditions: active ingredient 500 g/ha, observed 18th to 23rd day, 0 = non-treated, 100 = complete kill

Going from CC(C)C(c1cnccc1Cl)N(C)C(=O)Cc1cccc(F)c1 (centres unmarked) [I-65] to CC(C)C(c1cnccc1Cl)N(C)C(=O)Cc1c(F)cccc1F (centres unmarked) [I-70], the “Growth controlling degree (%) Crabgrass” value rises from 60% to 80%.

test system: green foxtail; assay: Test Example 1: foliage treatment, upland pot test; format: in vivo, Setaria viridis L.; conditions: active ingredient 500 g/ha, observed 18th to 23rd day, 0 = non-treated, 100 = complete kill

Compared with CC(C)C(c1cnccc1Cl)N(C)C(=O)Cc1cccc(F)c1 (centres unmarked) [I-65], CC(C)C(c1cnccc1Cl)N(C)C(=O)Cc1c(F)cccc1F (centres unmarked) [I-70] is higher in “Growth controlling degree (%) Green foxtail” value: 10% for the first, 60% for the second.

test system: redroot pigweed; assay: Test Example 1: foliage treatment, upland pot test; format: in vivo, Amaranthus retroflexus L.; conditions: active ingredient 500 g/ha, observed 18th to 23rd day, 0 = non-treated, 100 = complete kill

Going from CC(C)C(c1cnccc1Cl)N(C)C(=O)Cc1cccc(F)c1 (centres unmarked) [I-65] to CC(C)C(c1cnccc1Cl)N(C)C(=O)Cc1c(F)cccc1F (centres unmarked) [I-70], the “Growth controlling degree (%) Redroot pigweed” value falls from 90% to 50%.

test system: prickly sida; assay: Test Example 1: foliage treatment, upland pot test; format: in vivo, Sida spinosa L.; conditions: active ingredient 500 g/ha, observed 18th to 23rd day, 0 = non-treated, 100 = complete kill

CC(C)C(c1cnccc1Cl)N(C)C(=O)Cc1cccc(F)c1 (centres unmarked) [I-65] and CC(C)C(c1cnccc1Cl)N(C)C(=O)Cc1c(F)cccc1F (centres unmarked) [I-70] are the same in “Growth controlling degree (%) Prickly sida” value: 80% for the first, 80% for the second.

test system: velvetleaf; assay: Test Example 1: foliage treatment, upland pot test; format: in vivo, Abutilon theophrasti MEDIC.; conditions: active ingredient 500 g/ha, observed 18th to 23rd day, 0 = non-treated, 100 = complete kill

Compared with CC(C)C(c1cnccc1Cl)N(C)C(=O)Cc1cccc(F)c1 (centres unmarked) [I-65], CC(C)C(c1cnccc1Cl)N(C)C(=O)Cc1c(F)cccc1F (centres unmarked) [I-70] is higher in “Growth controlling degree (%) Velvetleaf” value: 70% for the first, 80% for the second.

test system: rice; assay: Test Example 1: foliage treatment, upland pot test; format: in vivo, Oryza sativa L.; conditions: crop, active ingredient 500 g/ha, observed 18th to 23rd day, 0 = non-treated, 100 = complete kill
Summary of the method: as §1

CC(C)C(c1cnccc1Cl)N(C)C(=O)Cc1cccc(F)c1 (centres unmarked) [I-65] and CC(C)C(c1cnccc1Cl)N(C)C(=O)Cc1c(F)cccc1F (centres unmarked) [I-70] are the same in “Growth controlling degree (%) Rice” value: 20% for the first, 20% for the second.

test system: corn; assay: Test Example 1: foliage treatment, upland pot test; format: in vivo, Zea mays L.; conditions: crop, active ingredient 500 g/ha, observed 18th to 23rd day, 0 = non-treated, 100 = complete kill
Summary of the method: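 Corn seeds were sown in upland field soil held in a 1/170,000 ha pot and grown to the 2.1 to 3.2 leaf stage. A wettable powder or emulsifiable concentrate of the test compound was diluted with water at 500 L/ha, given 0.1% (v/v) agricultural spreader, and sprayed onto the foliage with a small sprayer. Growth controlling degree (%) was scored visually 18th to 23rd days later, from 0 (non-treated) to 100 (complete kill).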

First: CC(C)C(c1cnccc1Cl)N(C)C(=O)Cc1cccc(F)c1 (centres unmarked) [I-65]
Second: CC(C)C(c1cnccc1Cl)N(C)C(=O)Cc1c(F)cccc1F (centres unmarked) [I-70]
The “Growth controlling degree (%) Corn” value of the first is lower: 0% for the first, 50% for the second.

test system: soybean; assay: Test Example 1: foliage treatment, upland pot test; format: in vivo, Glycine max Merr.; conditions: crop, active ingredient 500 g/ha, observed 18th to 23rd day, 0 = non-treated, 100 = complete kill
Summary of the method: as §1

Going from CC(C)C(c1cnccc1Cl)N(C)C(=O)Cc1cccc(F)c1 (centres unmarked) [I-65] to CC(C)C(c1cnccc1Cl)N(C)C(=O)Cc1c(F)cccc1F (centres unmarked) [I-70], the “Growth controlling degree (%) Soybean” value rises from 20% to 30%.

test system: barnyardgrass; assay: Test Example 2: soil surface treatment, upland pot test; format: in vivo, Echinochloa crus-galli L.; conditions: active ingredient 500 g/ha, observed 20th to 28th day
Summary of the method: (§2)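 Seeds were sown in upland field soil in 1/170,000 ha pots. One day later, a wettable powder or emulsifiable concentrate at a predetermined active-ingredient rate, diluted in water at 1,500 L/ha, was sprayed onto the soil surface. Growth control (%) was scored visually 20–28 days after application (0 = untreated, 100 = complete kill).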

Compared with CC(C)C(c1cnccc1Cl)N(C)C(=O)Cc1cccc(F)c1 (centres unmarked) [I-65], CC(C)C(c1cnccc1Cl)N(C)C(=O)Cc1c(F)cccc1F (centres unmarked) [I-70] is higher in “Growth controlling degree (%) Barnyardgrass” value: 60% for the first, 80% for the second.

test system: crabgrass; assay: as above; format: in vivo, Digitaria sanguinalis L.; conditions: active ingredient 500 g/ha, observed 20th to 28th day
Summary of the method: as §2

Going from CC(C)C(c1cnccc1Cl)N(C)C(=O)Cc1cccc(F)c1 (centres unmarked) [I-65] to CC(C)C(c1cnccc1Cl)N(C)C(=O)Cc1c(F)cccc1F (centres unmarked) [I-70], the “Growth controlling degree (%) Crabgrass” value rises from 90% to 98%.

test system: green foxtail; assay: as above; format: in vivo, Setaria viridis L.; conditions: active ingredient 500 g/ha, observed 20th to 28th day
Summary of the method: as §2

Going from CC(C)C(c1cnccc1Cl)N(C)C(=O)Cc1cccc(F)c1 (centres unmarked) [I-65] to CC(C)C(c1cnccc1Cl)N(C)C(=O)Cc1c(F)cccc1F (centres unmarked) [I-70], the “Growth controlling degree (%) Green foxtail” value rises from 60% to 70%.

test system: redroot pigweed; assay: as above; format: in vivo, Amaranthus retroflexus L.; conditions: active ingredient 500 g/ha, observed 20th to 28th day
Summary of the method: as §2

First: CC(C)C(c1cnccc1Cl)N(C)C(=O)Cc1cccc(F)c1 (centres unmarked) [I-65]
Second: CC(C)C(c1cnccc1Cl)N(C)C(=O)Cc1c(F)cccc1F (centres unmarked) [I-70]
The “Growth controlling degree (%) Redroot pigweed” value of the first is lower: 50% for the first, 70% for the second.

test system: prickly sida; assay: as above; format: in vivo, Sida spinosa L.; conditions: active ingredient 500 g/ha, observed 20th to 28th day
Summary of the method: as §2

Compared with CC(C)C(c1cnccc1Cl)N(C)C(=O)Cc1cccc(F)c1 (centres unmarked) [I-65], CC(C)C(c1cnccc1Cl)N(C)C(=O)Cc1c(F)cccc1F (centres unmarked) [I-70] is higher in “Growth controlling degree (%) Prickly sida” value: 10% for the first, 50% for the second.

test system: velvetleaf; assay: as above; format: in vivo, Abutilon theophrasti MEDIC.; conditions: active ingredient 500 g/ha, observed 20th to 28th day
Summary of the method: as §2

Compared with CC(C)C(c1cnccc1Cl)N(C)C(=O)Cc1cccc(F)c1 (centres unmarked) [I-65], CC(C)C(c1cnccc1Cl)N(C)C(=O)Cc1c(F)cccc1F (centres unmarked) [I-70] is lower in “Growth controlling degree (%) Velvetleaf” value: 10% for the first, 0% for the second.

test system: rice; assay: as above; format: in vivo, Oryza sativa L.; conditions: active ingredient 500 g/ha, observed 20th to 28th day
Summary of the method: as §2

Going from CC(C)C(c1cnccc1Cl)N(C)C(=O)Cc1cccc(F)c1 (centres unmarked) [I-65] to CC(C)C(c1cnccc1Cl)N(C)C(=O)Cc1c(F)cccc1F (centres unmarked) [I-70], the “Growth controlling degree (%) Rice” value rises from 20% to 40%.

test system: corn; assay: as above; format: in vivo, Zea mays L.; conditions: active ingredient 500 g/ha, observed 20th to 28th day
Summary of the method: as §2

Compared with CC(C)C(c1cnccc1Cl)N(C)C(=O)Cc1cccc(F)c1 (centres unmarked) [I-65], CC(C)C(c1cnccc1Cl)N(C)C(=O)Cc1c(F)cccc1F (centres unmarked) [I-70] is lower in “Growth controlling degree (%) Corn” value: 30% for the first, 0% for the second.

test system: soybean; assay: as above; format: in vivo, Glycine max Merr.; conditions: active ingredient 500 g/ha, observed 20th to 28th day
Summary of the method: as §2

CC(C)C(c1cnccc1Cl)N(C)C(=O)Cc1cccc(F)c1 (centres unmarked) [I-65] and CC(C)C(c1cnccc1Cl)N(C)C(=O)Cc1c(F)cccc1F (centres unmarked) [I-70] are the same in “Growth controlling degree (%) Soyabean” value: 0% for the first, 0% for the second.

test system: barnyardgrass; assay: Test Example 3: paddy pot test, application under submerged conditions; format: in vivo, Echinochloa crus-galli L.; conditions: active ingredient 125 g/ha; submerged application at 0.5 leaf stage; visually observed 14 days after application; 0 = non-treated, 100 = complete kill
Summary of the method: (§3)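 Barnyardgrass and japanese bulrush sown in flooded paddy soil in greenhouse pots, japanese ribbon wapato tubers planted 1–2 days later; water depth kept at 3–4 cm. Diluted wettable powder or emulsifiable concentrate applied into water at 0.5-leaf or primary-leaf stage at set active-ingredient doses. Growth control scored visually at 14 days, 0 (untreated) to 100% (complete kill).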

Compared with CC(C)C(c1cnccc1Cl)N(C)C(=O)Cc1cccc(F)c1 (centres unmarked) [I-65], CC(C)C(c1cnccc1Cl)N(C)C(=O)Cc1c(F)cccc1F (centres unmarked) [I-70] is lower in “Growth controlling degree (%) Barnyardgrass” value: 98% for the first, 80% for the second.

test system: japanese bulrush; assay: as above; format: in vivo, Scirpus juncoides; conditions: active ingredient 125 g/ha; submerged application at 0.5 leaf stage; visually observed 14 days after application; 0 = non-treated, 100 = complete kill
Summary of the method: as §3

First: CC(C)C(c1cnccc1Cl)N(C)C(=O)Cc1cccc(F)c1 (centres unmarked) [I-65]
Second: CC(C)C(c1cnccc1Cl)N(C)C(=O)Cc1c(F)cccc1F (centres unmarked) [I-70]
The “Growth controlling degree (%) Japanese bulrush” value of the first is higher: 90% for the first, 70% for the second.

test system: japanese ribbon wapato; assay: as above; format: in vivo, Sagittaria pygniaea; conditions: active ingredient 125 g/ha; submerged application at primary leaf stage; visually observed 14 days after application; 0 = non-treated, 100 = complete kill
Summary of the method: as §3

Going from CC(C)C(c1cnccc1Cl)N(C)C(=O)Cc1cccc(F)c1 (centres unmarked) [I-65] to CC(C)C(c1cnccc1Cl)N(C)C(=O)Cc1c(F)cccc1F (centres unmarked) [I-70], the “Growth controlling degree (%) Japanese ribbon wapato” value falls from 60% to 40%.

test system: rice (var. Nihonbare); assay: Test Example 3: paddy pot test, transplanted rice; format: in vivo, Oryza sativa L.; conditions: active ingredient 125 g/ha, applied 4th day after transplantation, visually observed 21st day after application, 0 = non-treated, 100 = complete kill
Summary of the method: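 Rice (var. Nihonbare) at 2 leaf stage transplanted 3 cm deep into puddled paddy soil under 3–4 cm flooding; on day 4 after transplanting, diluted wettable powder or emulsifiable concentrate applied by pipette under submerged conditions at a set active-ingredient dose. Growth scored visually 21 days after application, 0 (untreated) to 100 (complete kill) %.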

Going from CC(C)C(c1cnccc1Cl)N(C)C(=O)Cc1cccc(F)c1 (centres unmarked) [I-65] to CC(C)C(c1cnccc1Cl)N(C)C(=O)Cc1c(F)cccc1F (centres unmarked) [I-70], the “Growth controlling degree (%) Rice” value rises from 0% to 10%.
